Reference: the supplement of paper PMC10307832

Legend:
Test in all cases: relative viability (nuclei count vs DMSO), 5 days (fraction); higher = more cells survive
A-427 = test system: A-427
Outline: (§1)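 Lung cancer cell lines, seeded in 1536-well plates, were treated the following day by pin tool with a single drug or with five library-drug doses (not always all listed) in √10 steps on top of a fixed anchor-drug dose. Cells were fixed and nuclei stained in one step after 5 days, and nuclei were counted. Relative viability is the nuclei count for treated wells divided by that for vehicle wells, reported as medians of duplicate plates.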

ABC-1 = test system: ABC-1
Outline: as §1

COR-L23 = test system: COR-L23
Outline: as §1

EMC-BAC-2 = test system: EMC-BAC-2
Outline: as §1

HARA = test system: HARA
Outline: as §1

HOP-62 = test system: HOP-62
Outline: as §1

LK-2 = test system: LK-2
Outline: as §1

LU99A = test system: LU99A
Outline: as §1

LXF-289 = test system: LXF-289
Outline: as §1

NCI-H1792 = test system: NCI-H1792
Outline: as §1

NCI-H1793 = test system: NCI-H1793
Outline: as §1

NCI-H1944 = test system: NCI-H1944
Outline: as §1

NCI-H1993 = test system: NCI-H1993
Outline: as §1

NCI-H2009 = test system: NCI-H2009
Outline: as §1

NCI-H2170 = test system: NCI-H2170
Outline: as §1

NCI-H2228 = test system: NCI-H2228
Outline: as §1

NCI-H3122 = test system: NCI-H3122
Outline: as §1

NCI-H596 = test system: NCI-H596
Outline: as §1

NCI-H727 = test system: NCI-H727
Outline: as §1

PC-3 [JPC-3] = test system: PC-3 [JPC-3]
Outline: as §1

SK-LU-1 = test system: SK-LU-1
Outline: as §1

SK-MES-1 = test system: SK-MES-1
Outline: as §1

SW 1573 = test system: SW 1573
Outline: as §1

SW 900 = test system: SW 900
Outline: as §1

Structure (SMILES): Clc1ccc(Nc2nnc(Cc3ccncc3)c3ccccc23)cc1 [Vatalanib] + COc1cccc2cc(-c3nc([C@H]4CC[C@H](C(=O)O)CC4)n4ncnc(N)c34)[nH]c12 [OSI-027] (partner 0.5 µM)
- relative viability (A-427; first compound 0.04 µM): 0.504
- relative viability (A-427; first compound 0.1265 µM): 0.453
- relative viability (A-427; first compound 0.4 µM): 0.494
- relative viability (A-427; first compound 1.265 µM): 0.464
- relative viability (A-427; first compound 4 µM): 0.486
- relative viability (ABC-1; first compound 0.04 µM): 0.444
- relative viability (ABC-1; first compound 0.1265 µM): 0.512
- relative viability (ABC-1; first compound 1.265 µM): 0.381
- relative viability (ABC-1; first compound 4 µM): 0.486
- relative viability (COR-L23; first compound 0.04 µM): 0.814
- relative viability (COR-L23; first compound 0.1265 µM): 0.765
- relative viability (COR-L23; first compound 0.4 µM): 0.891
- relative viability (COR-L23; first compound 1.265 µM): 0.709
- relative viability (COR-L23; first compound 4 µM): 0.722
- relative viability (EMC-BAC-2; first compound 0.04 µM): 0.413
- relative viability (EMC-BAC-2; first compound 0.1265 µM): 0.392
- relative viability (EMC-BAC-2; first compound 0.4 µM): 0.398
- relative viability (EMC-BAC-2; first compound 1.265 µM): 0.335
- relative viability (EMC-BAC-2; first compound 4 µM): 0.4
- relative viability (HARA; first compound 0.04 µM): 0.506
- relative viability (HARA; first compound 0.1265 µM): 0.595
- relative viability (HARA; first compound 0.4 µM): 0.71
- relative viability (HARA; first compound 1.265 µM): 0.492
- relative viability (HARA; first compound 4 µM): 0.422
- relative viability (HOP-62; first compound 0.04 µM): 0.906
- relative viability (HOP-62; first compound 0.1265 µM): 0.804
- relative viability (HOP-62; first compound 0.4 µM): 0.833
- relative viability (HOP-62; first compound 1.265 µM): 0.741
- relative viability (HOP-62; first compound 4 µM): 0.875
- relative viability (LK-2; first compound 0.04 µM): 0.211
- relative viability (LK-2; first compound 0.1265 µM): 0.208
- relative viability (LK-2; first compound 0.4 µM): 0.214
- relative viability (LK-2; first compound 1.265 µM): 0.196
- relative viability (LK-2; first compound 4 µM): 0.198
- relative viability (LU99A; first compound 0.04 µM): 0.262
- relative viability (LU99A; first compound 0.1265 µM): 0.282
- relative viability (LU99A; first compound 0.4 µM): 0.358
- relative viability (LU99A; first compound 1.265 µM): 0.307
- relative viability (LU99A; first compound 4 µM): 0.277
- relative viability (LXF-289; first compound 0.04 µM): 0.824
- relative viability (LXF-289; first compound 0.1265 µM): 0.802
- relative viability (LXF-289; first compound 0.4 µM): 0.858
- relative viability (LXF-289; first compound 1.265 µM): 0.806
- relative viability (LXF-289; first compound 4 µM): 0.761
- relative viability (NCI-H1792; first compound 0.04 µM): 0.678
- relative viability (NCI-H1792; first compound 0.1265 µM): 0.68
- relative viability (NCI-H1792; first compound 0.4 µM): 0.704
- relative viability (NCI-H1792; first compound 1.265 µM): 0.707
- relative viability (NCI-H1792; first compound 4 µM): 0.631
- relative viability (NCI-H1793; first compound 0.04 µM): 0.268
- relative viability (NCI-H1793; first compound 0.1265 µM): 0.226
- relative viability (NCI-H1793; first compound 0.4 µM): 0.309
- relative viability (NCI-H1793; first compound 1.265 µM): 0.217
- relative viability (NCI-H1793; first compound 4 µM): 0.184
- relative viability (NCI-H1944; first compound 0.04 µM): 0.42
- relative viability (NCI-H1944; first compound 0.1265 µM): 0.421
- relative viability (NCI-H1944; first compound 0.4 µM): 0.413
- relative viability (NCI-H1944; first compound 1.265 µM): 0.411
- relative viability (NCI-H1944; first compound 4 µM): 0.336
- relative viability (NCI-H1993; first compound 0.04 µM): 0.55
- relative viability (NCI-H1993; first compound 0.1265 µM): 0.558
- relative viability (NCI-H1993; first compound 0.4 µM): 0.554
- relative viability (NCI-H1993; first compound 1.265 µM): 0.594
- relative viability (NCI-H1993; first compound 4 µM): 0.58
- relative viability (NCI-H2009; first compound 0.04 µM): 0.73
- relative viability (NCI-H2009; first compound 0.1265 µM): 0.561
- relative viability (NCI-H2009; first compound 0.4 µM): 0.647
- relative viability (NCI-H2009; first compound 1.265 µM): 0.58
- relative viability (NCI-H2009; first compound 4 µM): 0.626
- relative viability (NCI-H2170; first compound 0.04 µM): 0.707
- relative viability (NCI-H2170; first compound 0.1265 µM): 0.743
- relative viability (NCI-H2170; first compound 0.4 µM): 0.782
- relative viability (NCI-H2170; first compound 1.265 µM): 0.63
- relative viability (NCI-H2170; first compound 4 µM): 0.769
- relative viability (NCI-H2228; first compound 0.04 µM): 0.568
- relative viability (NCI-H2228; first compound 0.1265 µM): 0.566
- relative viability (NCI-H2228; first compound 0.4 µM): 0.604
- relative viability (NCI-H2228; first compound 1.265 µM): 0.589
- relative viability (NCI-H2228; first compound 4 µM): 0.504
- relative viability (NCI-H3122; first compound 0.04 µM): 1.13
- relative viability (NCI-H3122; first compound 0.1265 µM): 0.982
- relative viability (NCI-H3122; first compound 1.265 µM): 0.934
- relative viability (NCI-H3122; first compound 4 µM): 0.848
- relative viability (NCI-H596; first compound 0.04 µM): 0.838
- relative viability (NCI-H596; first compound 0.1265 µM): 0.651
- relative viability (NCI-H596; first compound 0.4 µM): 0.777
- relative viability (NCI-H596; first compound 1.265 µM): 0.756
- relative viability (NCI-H596; first compound 4 µM): 0.5
- relative viability (NCI-H727; first compound 0.04 µM): 0.562
- relative viability (NCI-H727; first compound 0.1265 µM): 0.545
- relative viability (NCI-H727; first compound 0.4 µM): 0.653
- relative viability (NCI-H727; first compound 1.265 µM): 0.562
- relative viability (NCI-H727; first compound 4 µM): 0.45
- relative viability (PC-3 [JPC-3]; first compound 0.04 µM): 0.752
- relative viability (PC-3 [JPC-3]; first compound 0.1265 µM): 0.698
- relative viability (PC-3 [JPC-3]; first compound 0.4 µM): 0.771
- relative viability (PC-3 [JPC-3]; first compound 1.265 µM): 0.733
- relative viability (PC-3 [JPC-3]; first compound 4 µM): 0.672
- relative viability (SK-LU-1; first compound 0.04 µM): 0.365
- relative viability (SK-LU-1; first compound 0.1265 µM): 0.346
- relative viability (SK-LU-1; first compound 0.4 µM): 0.395
- relative viability (SK-LU-1; first compound 1.265 µM): 0.357
- relative viability (SK-LU-1; first compound 4 µM): 0.348
- relative viability (SK-MES-1; first compound 0.04 µM): 0.634
- relative viability (SK-MES-1; first compound 0.1265 µM): 0.588
- relative viability (SK-MES-1; first compound 0.4 µM): 0.77
- relative viability (SK-MES-1; first compound 1.265 µM): 0.578
- relative viability (SK-MES-1; first compound 4 µM): 0.575
- relative viability (SW 1573; first compound 0.04 µM): 0.714
- relative viability (SW 1573; first compound 0.1265 µM): 0.574
- relative viability (SW 1573; first compound 0.4 µM): 0.666
- relative viability (SW 1573; first compound 1.265 µM): 0.585
- relative viability (SW 1573; first compound 4 µM): 0.59
- relative viability (SW 900; first compound 0.1265 µM): 0.531
- relative viability (SW 900; first compound 0.4 µM): 0.565
- relative viability (SW 900; first compound 1.265 µM): 0.618
- relative viability (SW 900; first compound 4 µM): 0.501
